Here are results for 27 molecules from patent US20120264735A1 (priority 2009, published 2012).

The structures appear in SMILES notation.

The test deals with T1, c-Met kinase (recombinant c-Met) (Homo sapiens, UniProt P08581).
T1 construct: 0.27 nM recombinant c-Met
T1 sequence (P08581 25-1390): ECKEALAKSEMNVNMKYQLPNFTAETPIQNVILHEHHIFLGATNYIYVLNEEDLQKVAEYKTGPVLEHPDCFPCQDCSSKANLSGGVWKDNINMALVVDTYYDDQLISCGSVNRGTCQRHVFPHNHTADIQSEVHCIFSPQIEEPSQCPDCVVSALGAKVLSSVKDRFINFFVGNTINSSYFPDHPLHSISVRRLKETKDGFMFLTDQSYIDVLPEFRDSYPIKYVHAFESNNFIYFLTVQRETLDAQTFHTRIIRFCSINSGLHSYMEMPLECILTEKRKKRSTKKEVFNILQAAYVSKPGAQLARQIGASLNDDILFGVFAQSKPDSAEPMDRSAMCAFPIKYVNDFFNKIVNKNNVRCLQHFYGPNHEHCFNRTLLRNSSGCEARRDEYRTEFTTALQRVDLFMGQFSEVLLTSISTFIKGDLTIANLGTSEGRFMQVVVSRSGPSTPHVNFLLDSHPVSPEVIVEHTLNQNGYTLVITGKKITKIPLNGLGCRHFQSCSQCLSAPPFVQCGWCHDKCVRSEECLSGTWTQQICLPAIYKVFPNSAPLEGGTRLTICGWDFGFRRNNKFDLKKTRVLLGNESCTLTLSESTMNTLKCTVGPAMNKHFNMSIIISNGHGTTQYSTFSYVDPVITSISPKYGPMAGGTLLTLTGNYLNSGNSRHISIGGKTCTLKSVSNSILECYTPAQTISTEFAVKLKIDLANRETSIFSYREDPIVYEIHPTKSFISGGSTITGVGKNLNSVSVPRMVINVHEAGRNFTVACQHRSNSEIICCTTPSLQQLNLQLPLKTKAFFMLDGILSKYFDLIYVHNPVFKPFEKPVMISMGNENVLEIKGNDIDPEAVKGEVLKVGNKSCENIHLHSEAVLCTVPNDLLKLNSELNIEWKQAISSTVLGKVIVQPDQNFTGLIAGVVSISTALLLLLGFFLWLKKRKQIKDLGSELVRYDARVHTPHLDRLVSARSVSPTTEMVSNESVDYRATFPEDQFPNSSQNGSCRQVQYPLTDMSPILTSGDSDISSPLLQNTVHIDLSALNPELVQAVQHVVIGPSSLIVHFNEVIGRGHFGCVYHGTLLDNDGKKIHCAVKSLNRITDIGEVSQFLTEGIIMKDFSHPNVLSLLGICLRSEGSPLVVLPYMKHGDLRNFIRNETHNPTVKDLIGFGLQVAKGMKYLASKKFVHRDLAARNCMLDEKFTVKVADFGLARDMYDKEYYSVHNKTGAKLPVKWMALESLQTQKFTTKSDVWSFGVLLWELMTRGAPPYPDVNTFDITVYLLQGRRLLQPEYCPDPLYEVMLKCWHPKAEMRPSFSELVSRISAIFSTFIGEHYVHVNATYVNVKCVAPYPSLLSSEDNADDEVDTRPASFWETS
The test can be described thus: In vitro kinase assay I (homogeneous time-resolved fluorescence tyrosine kinase assay). The class given is biochemical. Here is the method: The kinase activities of c-Met are measured using a modified version of the homogeneous-time-resolved tyrosine kinase assay described by Park et al. (1999, Anal. Biochem. 269:94-104).
The procedure for determining the potency of a compound to inhibit c-Met kinase comprises the following steps: • 1. Prepare 3-fold serial diluted compound solutions in 100% dimethyl sulfoxide (DMSO) at 20× of the desired final concentrations in a 384-well plate. • 2. Prepare a master reaction mix containing 6.67 mM MgCl2, 133.3 mM NaCl, 66.7 mM Tris-HCl (pH 7.4), 0.13 mg/ml BSA, 2.67 mM dithiothreitol, 0.27 nM recombinant c-Met and 666.7 nM biotinylated synthetic peptide substrate (biotin-ahx-EQEDEPEGDYFEWLE-CONH2) (SEQ.ID.NO.:1). • 3. In a black assay plate, add 1.5 μl of compound solution (or DMSO) and 22.5 μl of master reaction mix per well. Initiate the kinase reaction by adding 6 μl of 0.25 mM MgATP per well. Allow the reactions to proceed for 60 min at room temperature. The final conditions for the reaction are 0.2 nM c-Met, 0.5 μM substrate, 50 μM MgATP, 5 mM MgCl2, 100 mM NaCl, 2 mM DTT, 0.1 mg/ml BSA, 50 mM Tris (pH 7.4) and 5% DMSO. • 4. Stop the kinase reaction with 30 μl of Stop/Detection buffer containing 10 mM EDTA, 25 mM HEPES, 0.1% TRITON X-100, 0.750 nM Eu-chelate labeled anti-phosphotyrosine antibody PY20 (cat. #AD0067, PerkinElmer) and 50 μg/ml Streptavidin-allophycocyanin conjugate (cat. #PJ25S, Prozyme). • 5. Read HTRF signals on a Victor reader (PerkinElmer) in HTRF mode after 60-min incubation at room temperature in the dark. • 6. IC50 is determined by fitting the observed relationship between compound concentration and HTRF signal with a 4-parameter logistic equation. II. GTL-16 pY1349 Cell-Based Assay
Turning to `CN(C)C(=O)CCOC(=O)Nc1cccc(Cc2nn(-c3cccc(C#N)c3)ccc2=O)c1` [Example 588, 3-(dimethylamino)-3-oxopropyl (3-{[1-(3-cyanophenyl)-4-oxo-1,4-dihydropyridazin-3-yl]methyl}phenyl)carbamate], the half-inhibitory concentration (IC50) is below 100 nM.

For the molecule `CCCC(c1cccc(-c2ncc(OCC)cn2)c1)c1nn(-c2cnn(C)c2)ccc1=O` (single isomer, unassigned) [Example 207, 3-{(1S or R)-1-[3-(5-ethoxypyrimidin-2-yl)phenyl]butyl}-1-(1-methyl-1H-pyrazol-4-yl)pyridazin-4(1H)-one], the half-inhibitory concentration (IC50) is 100 to 1000 nM.

As to `Cn1cc(-n2ccc(=O)c(Cc3cccc(-c4ncc(OCC5(F)CCOCC5)cn4)c3)n2)cn1` [Example 388, 3-(3-{5-[(4-fluorotetrahydro-2H-pyran-4-yl)methoxy]pyrimidin-2-yl}benzyl)-1-(1-methyl-1H-pyrazol-4-yl)pyridazin-4(1H)-one], the IC50 is below 100 nM.

`O=C(Nc1cccc(Cc2nn(-c3cc(F)c(F)c(F)c3)ccc2=O)c1)OCCn1cncn1` [Example 552, 2-(1H-1,2,4-triazol-1-yl)ethyl (3-{[4-oxo-1-(3,4,5-trifluorophenyl)-1,4-dihydropyridazin-3-yl]methyl}phenyl)carbamate]: the half-maximal inhibitory concentration (IC50) was below 100 nM.

With `Cn1cc(-n2ccc(=O)c(Cc3cccc(-c4ncc(NCC5CCOC5)cn4)c3)n2)cn1` (racemic) [Example 455, rac-1-(1-methyl-1H-pyrazol-4-yl)-3-(3-{5-[(tetrahydro-furan-3-ylmethyl)amino]pyrimidin-2-yl}benzyl)pyridazin-4(1H)-one], the IC50 was below 100 nM.

With `Cn1cc(-n2ccc(=O)c(Cc3cccc(-c4ncc(CN5CCOCC5)cn4)c3)n2)cn1` [Example 426, 1-(1-Methyl-1H-pyrazol-4-yl)-3-{3-[5-(morpholin-4-ylmethyl)pyrimidin-2-yl]benzyl}pyridazin-4(1H)-one], the IC50 was below 100 nM.

In the case of `Cn1cc(-n2ccc(=O)c(Cc3cccc(-c4ncn(CCCC5OCC(C)(C)CO5)n4)c3)n2)cn1` [Example 720, 3-(3-{1-[3-(5,5-dimethyl-1,3-dioxan-2-yl)propyl]-1H-1,2,4-triazol-3-yl}benzyl)-1-(1-methyl-1H-pyrazol-4-yl)pyridazin-4(1H)-one], the half-maximal inhibitory concentration (IC50) was below 100 nM.

For the molecule `Cn1cc(-n2ccc(=O)c(Cc3cccc(NC(=O)OCCCCO)c3)n2)cn1` [Example 572, 4-hydroxybutyl (3-{[1-(1-methyl-1H-pyrazol-4-yl)-4-oxo-1,4-dihydropyridazin-3-yl]methyl}phenyl)carbamate], the half-inhibitory concentration (IC50) is below 100 nM.

In the case of `Cn1cc(-n2ccc(=O)c(Cc3cccc(-c4ncc(N5CCOCC5)cn4)c3)n2)cn1` [Example 472, 1-(1-methyl-1H-pyrazol-4-yl)-3-[3-(5-morpholin-4-ylpyrimidin-2-yl)benzyl]pyridazin-4(1H)-one], the IC50 was below 100 nM.

On to `Cn1cc(-n2ccc(=O)c(Cc3cccc(NC(=O)OCC4CCOC4)c3)n2)cn1` (racemic) [Example 542, rac-tetrahydrofuran-3-ylmethyl (3-{[1-(1-methyl-1H-pyrazol-4-yl)-4-oxo-1,4-dihydropyridazin-3-yl]methyl}phenyl)carbamate], for which the IC50 is below 100 nM.

With `Cn1cc(-n2ccc(=O)c(Cc3cccc(-c4ncc(CCc5ccccn5)cn4)c3)n2)cn1` [Example 398, 1-(1-methyl-1H-pyrazol-4-yl)-3-(3-{5-[2-(pyridin-2-yl)ethyl]pyrimidin-2-yl}benzyl)pyridazin-4(1H)-one], the IC50 is below 100 nM.

With `O=c1ccn(-c2ccc(F)c(F)c2)nc1Cc1cccc(-c2ncc(OC3CCOC3)cn2)c1` (single isomer, unassigned) [Example 350, 1-(3,4-difluorophenyl)-3-(3-{5-[(3S or R)-tetrahydrofuran-3-yloxy]pyrimidin-2-yl}benzyl)pyridazin-4(1H)-one], the IC50 was below 100 nM.

As for `CC(C)COC(=O)Nc1cccc(Cc2nn(-c3cnn(CC4CCOCC4)c3)ccc2=O)c1` [Example 102, 2-methylpropyl [3-({4-oxo-1-[1-(tetrahydro-2H-pyran-4-ylmethyl)-1H-pyrazol-4-yl]-1,4-dihydropyridazin-3-yl}methyl)phenyl]carbamate], the IC50 fell in the range of 100 to 1000 nM.

For `CCOCCOc1cnc(-c2cccc(Cc3nn(-c4cccc(C#N)c4)ccc3=O)c2)nc1` [Example 323, 3-[3-{3-[5-(2-ethoxyethoxy)pyrimidin-2-yl]benzyl}-4-oxopyridazin-1(4H)-yl]benzonitrile], the half-inhibitory concentration (IC50) was below 100 nM.

As for `CC(c1cccc(-c2ncc(-c3cnn(C)c3)cn2)c1)c1nn(-c2cnn(C)c2)ccc1=O` (single isomer, unassigned) [Example 233, 1-(1-methyl-1H-pyrazol-4-yl)-3-[(1R or S)-1-{3-[5-(1-methyl-1H-pyrazol-4-yl)pyrimidin-2-yl]phenyl}ethyl]pyridazin-4(1H)-one], the concentration for half-maximal inhibition (IC50) is below 100 nM.

Regarding `CCOC(=O)Nc1cccc(Cc2nn(-c3cnn(C4CCOC4)c3)ccc2=O)c1` (racemic) [Example 97, rac-ethyl [3-({4-oxo-1-[1-(tetrahydrofuran-3-yl)-1H-pyrazol-4-yl]-1,4-dihydropyridazin-3-yl}methyl)phenyl]carbamate], the IC50 was below 100 nM.

As for `Cn1cc(-n2ccc(=O)c(Cc3cccc(NC(=O)OC[C@H]4CCCN4)c3)n2)cn1` [Example 615, (2R)-pyrrolidin-2-ylmethyl (3-{[1-(1-methyl-1H-pyrazol-4-yl)-4-oxo-1,4-dihydropyridazin-3-yl]methyl}phenyl)carbamate], the IC50 lay within 100 to 1000 nM.

Take `CN(C)C(=O)COc1cnc(-c2cccc(Cc3nn(-c4cnn(C)c4)ccc3=O)c2)nc1` [Example 279, N,N-dimethyl-2-{[2-(3-{[1-(1-methyl-1H-pyrazol-4-yl)-4-oxo-1,4-dihydropyridazin-3-yl]methyl}phenyl)pyrimidin-5-yl]oxy}acetamide]: the concentration for half-maximal inhibition (IC50) is below 100 nM.

In the case of `CC(C)COC(=O)Nc1cccc(Cc2nn(-c3cnn(CCCC(=O)NCC(C)O)c3)ccc2=O)c1` (racemic) [Example 706, rac-2-methylpropyl (3-{[1-(1-{4-[(2-hydroxypropyl)amino]-4-oxobutyl}-1H-pyrazol-4-yl)-4-oxo-1,4-dihydropyridazin-3-yl]methyl}phenyl) carbamate], the IC50 was 100 to 1000 nM.

Turning to `CCOc1cnc(-c2cccc(Cc3nn(-c4cnn(CC(=O)N(C)C)c4)ccc3=O)c2)nc1` [Example 662, 2-(4-{3-[3-(5-ethoxypyrimidin-2-yl)benzyl]-4-oxopyridazin-1(4H)-yl}-1H-pyrazol-1-yl)-N,N-dimethylacetamide], the IC50 fell in the range of 100 to 1000 nM.

For `O=C(Nc1cccc(Cc2nn(-c3cc(F)c(F)c(F)c3)ccc2=O)c1)OCCn1ccnc1` [Example 547, 2-(1H-imidazol-1-yl)ethyl (3-{[4-oxo-1-(3,4,5-trifluorophenyl)-1,4-dihydropyridazin-3-yl]methyl}phenyl)carbamate], the half-inhibitory concentration (IC50) is below 100 nM.

With `COCCOCCOC(=O)Nc1cccc(Cc2nn(-c3ccc(F)c(F)c3)ccc2=O)c1` [Example 602, 2-(2-methoxyethoxy)ethyl (3-{[1-(3,4-difluorophenyl)-4-oxo-1,4-dihydropyridazin-3-yl]methyl}phenyl)carbamate], the half-maximal inhibitory concentration (IC50) is below 100 nM.

In the case of `O=C(Nc1cccc(Cc2nn(-c3cc(F)c(F)c(F)c3)ccc2=O)c1)OCCN1CCC(C(=O)O)CC1` [Example 512, 1-(2-{[(3-{[4-oxo-1-(3,4,5-trifluorophenyl)-1,4-dihydropyridazin-3-yl]methyl}phenyl)carbamoyl]oxy}ethyl)piperidine-4-carboxylic acid], the IC50 was below 100 nM.

Regarding `CN(C)C(=O)CCOC(=O)Nc1cccc(Cc2nn(-c3cc(F)cc(F)c3)ccc2=O)c1` [Example 589, 3-(dimethylamino)-3-oxopropyl (3-{[1-(3,5-difluorophenyl)-4-oxo-1,4-dihydropyridazin-3-yl]methyl}phenyl)carbamate], the concentration for half-maximal inhibition (IC50) was below 100 nM.

For `Cn1cc(-n2ccc(=O)c(Cc3cccc(-c4ncc(C(=O)NCCCN5CCOCC5)cn4)c3)n2)cn1` [Example 482, 2-(3-{[1-(1-methyl-1H-pyrazol-4-yl)-4-oxo-1,4-dihydro-pyridazin-3-yl]methyl}phenyl)-N-(3-morpholin-4-ylpropyl)pyrimidine-5-carboxamide], the IC50 is below 100 nM.

Regarding `CC(C)(O)COc1cnc(-c2cccc(Cc3nn(-c4ccc(C#N)cc4)ccc3=O)c2)nc1` [Example 372, 4-[3-{3-[5-(2-hydroxy-2-methylpropoxy)pyrimidin-2-yl]benzyl}-4-oxopyridazin-1(4H)-yl]benzonitrile], the IC50 was below 100 nM.

For `O=C1CN(CCOC(=O)Nc2cccc(Cc3nn(-c4ccc(F)c(F)c4)ccc3=O)c2)CCN1` [Example 529, 2-(3-oxopiperazin-1-yl)ethyl (3-{[1-(3,4-difluorophenyl)-4-oxo-1,4-dihydropyridazin-3-yl]methyl}phenyl)carbamate], the IC50 is below 100 nM.
